Measurements taken from BindingDB's records for doi:10.1021/jm060653b (Pfizer, 2007).
pKi: −log10 of the molar value.

Target: T1, cAMP and cAMP-inhibited cGMP 3',5'-cyclic phosphodiesterase 10A (Rattus norvegicus, UniProt Q9QYJ6)
T1 sequence (Q9QYJ6 whole entry): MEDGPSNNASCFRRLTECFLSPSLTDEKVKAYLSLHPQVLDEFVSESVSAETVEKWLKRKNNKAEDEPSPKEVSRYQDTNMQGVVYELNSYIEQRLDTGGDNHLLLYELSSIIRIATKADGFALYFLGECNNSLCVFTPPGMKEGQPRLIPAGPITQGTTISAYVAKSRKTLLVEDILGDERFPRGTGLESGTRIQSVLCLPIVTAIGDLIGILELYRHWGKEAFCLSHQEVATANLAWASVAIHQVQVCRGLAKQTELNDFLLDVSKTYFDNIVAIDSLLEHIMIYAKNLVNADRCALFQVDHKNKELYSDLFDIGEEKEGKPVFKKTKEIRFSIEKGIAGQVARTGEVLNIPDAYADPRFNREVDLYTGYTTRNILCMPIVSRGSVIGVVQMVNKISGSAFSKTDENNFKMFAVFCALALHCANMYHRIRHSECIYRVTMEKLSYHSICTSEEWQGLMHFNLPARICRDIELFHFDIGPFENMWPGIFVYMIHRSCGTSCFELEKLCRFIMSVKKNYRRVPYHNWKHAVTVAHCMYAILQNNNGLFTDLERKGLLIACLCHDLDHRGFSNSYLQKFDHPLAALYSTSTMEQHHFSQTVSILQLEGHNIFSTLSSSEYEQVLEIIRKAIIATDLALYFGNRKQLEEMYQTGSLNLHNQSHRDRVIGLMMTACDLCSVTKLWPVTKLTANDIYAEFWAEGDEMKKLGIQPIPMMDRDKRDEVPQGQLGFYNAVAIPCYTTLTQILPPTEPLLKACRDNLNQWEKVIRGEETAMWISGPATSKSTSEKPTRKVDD
Assay: PDE Competitive Enzyme Inhibition Assay
Conditions: pH 7.5; 22 °C
Source text: PDE activity was monitored by measuring the hydrolysis of [3H]-cAMP to [3H]-AMP using a scintillation proximity assay (SPA). [3H]-AMP was captured by the SPA beads, and quantified on a TopCount plate reader.

Compound `COc1cc2ncnc(N3CC[C@@H](Oc4ccc(C(C)(C)C)cc4)C3)c2cc1OC` [(R)-4-[3-(4-tert-Butyl-phenoxy)-pyrrolidin-1-yl]-6,7-dimethoxy-quinazoline] has a pKi of 7.00.
